Among the test systems are Escherichia coli TOP 10; Escherichia coli BL21; Candida krusei ATCC 6258; Escherichia coli W3110; Acinetobacter baumannii; Escherichia coli O157:H7; Vibrio cholerae O1 Inaba.
Common to all, as to experiment: ≥ marks a high value that may be exact or a test limit, other limits are often not marked, values filed in µg/mL are converted to µM
The subject of experiment [1] is Acinetobacter baumannii ATCC 19606.
Experiment [2] deals with Bacillus megaterium ATCC 13632.
For experiment [3], the system named is Bacillus subtilis ATCC 6051.
Experiment [4] concerns Candida albicans ATCC 90028.
The subject of experiment [5] is Candida tropicalis ATCC 750.
For experiment [6], the system named is Cryptococcus neoformans ATCC 208821.
Experiment [7] concerns Enterococcus faecium ATCC 35667.
Experiment [8] concerns Escherichia coli ATCC 25922.
The subject of experiment [9] is Klebsiella pneumoniae ATCC 700603.
For experiment [10], the system named is Pseudomonas aeruginosa ATCC 27853.
The test system of experiment [11] is Staphylococcus aureus ATCC 29213.
The test system of experiment [12] is Staphylococcus aureus ATCC 43300.
Experiment [13] concerns Staphylococcus aureus VRSA1.
The test system of experiment [14] is Streptococcus pneumoniae ATCC 700677.
For experiment [15], the system named is Escherichia coli D31 CGSC 5165.
Experiment [16] concerns Pseudomonas aeruginosa ATCC 47085.
Experiment [17] relates to Staphylococcus aureus ATCC 35556.
In experiment [18] the test system is Pseudomonas aeruginosa PAO1.
Experiment [19] concerns Streptococcus pyogenes M1T1 5448.
The test system of experiment [20] is Enterococcus faecalis ATCC 29212.
In experiment [21] the test system is Escherichia coli ATCC 12795.
In experiment [22] the test system is Klebsiella pneumoniae ATCC 10031.
The test system of experiment [23] is Mannheimia haemolytica 82-25.
Experiment [24] concerns Pseudomonas aeruginosa ATCC 27312.
In experiment [25] the test system is Serratia marcescens ATCC 14756.
The subject of experiment [26] is Klebsiella pneumoniae ATCC BAA-1705.
In experiment [27] the test system is Staphylococcus aureus SH1000.
For experiment [28], the system named is Bacillus cereus ATCC 11778.
The subject of experiment [29] is Listeria monocytogenes 10403s.
Experiment [30] deals with Salmonella enterica subsp. enterica serovar Typhimurium ATCC 13311.
In experiment [31] the test system is Shigella sonnei ATCC 11060.
The subject of experiment [32] is Staphylococcus aureus ATCC 25923.
Experiment [33] relates to Staphylococcus epidermidis ATCC 12228.

Among the data in DBAASP are MIC values, retold here.

≈ marks a conversion by molar mass, not a printed value. Some results are limits rather than exact numbers.

With `CC[C@H](C)[C@H](N)C(=O)N[C@@H](Cc1ccccc1)C(=O)NCC(=O)N[C@H](C(=O)N[C@H](C(=O)N[C@@H](CC(C)C)C(=O)NCC(=O)N[C@@H](Cc1ccccc1)C(=O)N[C@@H](CC(C)C)C(=O)N[C@@H](CCCCN)C(=O)NCC(=O)N[C@@H](CC(C)C)C(N)=O)[C@@H](C)CC)[C@@H](C)O` [IFGTILGFLKGL], the MIC (in general, the smallest concentration in the dilution series that meets the test's criterion for growth inhibition) in experiment [1] is 100 µM (≈ 128 µg/mL); in experiment [2] it was 12.5 µM (≈ 16 µg/mL); in experiment [3] it was 25 µM (≈ 32 µg/mL); in experiment [4], no less than 100 µM; in [5], 25 µM (≈ 32 µg/mL); in [6], 25 µM (≈ 32 µg/mL). Further, the MIC is 25 µM (≈ 32 µg/mL) in experiment [7]; 100 µM (≈ 128 µg/mL) in experiment [8]; 200 µM (≈ 256 µg/mL) in [9]; greater than 200 µM in experiment [10]; 12.5 µM (≈ 16 µg/mL) in [11]; 12.5 µM (≈ 16 µg/mL) in [12]. Further, the minimum inhibitory concentration (MIC) in experiment [13] came to 12.5 µM (≈ 16 µg/mL); in experiment [14], 25 µM (≈ 32 µg/mL).
Turning to `CC(C)C[C@H](NC(=O)[C@@H](N)[C@@H](C)O)C(=O)N1CCC[C@H]1C(=O)N[C@@H](CCC(=O)O)C(=O)N[C@@H](Cc1c[nH]c2ccccc12)C(=O)N[C@@H](CC(=O)O)C(=O)N[C@@H](CC(=O)O)C(=O)N[C@@H](CCCN=C(N)N)C(=O)N[C@@H](CCCN=C(N)N)C(=O)N[C@H](C(=O)N[C@H](C(=O)N[C@@H](CC(N)=O)C(=O)N[C@@H](CO)C(N)=O)C(C)C)C(C)C` [TLPEWDDRRVVNS], in the experiment on Escherichia coli TOP 10, the MIC was no less than 63 µM.
For the molecule `CC[C@H](C)[C@H](NC(=O)[C@H](CCCCN)NC(=O)CNC(=O)[C@H](CC(C)C)NC(=O)[C@@H](NC(=O)[C@H](C)NC(=O)[C@H](CCCCN)NC(=O)CNC(=O)[C@H](C)NC(=O)CNC(=O)[C@H](CCCCN)NC(=O)[C@H](CCSC)NC(=O)[C@H](CCCCN)NC(=O)[C@@H](NC(=O)[C@H](Cc1c[nH]c2ccccc12)NC(=O)[C@H](CC(C)C)NC(=O)[C@H](CCC(N)=O)NC(=O)[C@H](CCCCN)NC(=O)[C@H](CC(C)C)NC(=O)[C@@H](N)CC(C)C)[C@@H](C)O)C(C)C)C(=O)N[C@@H](CCCCN)C(=O)NCC(=O)N[C@@H](CC(C)C)C(=O)N[C@@H](CC(C)C)C(=O)O` [LLKQLWTKMKGAGKAVLGKIKGLL], the MIC in experiment [1] worked out at 0.94 µM (≈ 2.44 µg/mL); in experiment [15] it was 0.94 µM (≈ 2.44 µg/mL); in experiment [16], 7.5 µM (≈ 19.5 µg/mL); in [17] it was 1.88 µM (≈ 4.88 µg/mL).
As for `CC[C@H](C)[C@H](NC(=O)[C@H](CCCCN)NC(=O)[C@H](C)NC(=O)[C@H](CCCN=C(N)N)NC(=O)[C@H](CCCCN)NC(=O)CNC(=O)[C@H](CCCCN)NC(=O)[C@H](CCC(=O)O)NC(=O)[C@H](CCC(N)=O)NC(=O)[C@@H](NC(=O)[C@H](CCCCN)NC(=O)[C@H](CCCCN)NC(=O)[C@H](CCCCN)NC(=O)[C@H](CC(C)C)NC(=O)[C@H](CCCN=C(N)N)NC(=O)[C@H](CCC(N)=O)NC(=O)[C@H](Cc1ccccc1)NC(=O)[C@@H](NC(=O)[C@@H](NC(=O)[C@H](CCC(=O)O)NC(=O)[C@H](CCCCN)NC(=O)CNC(=O)[C@H](C)N)[C@@H](C)O)[C@@H](C)CC)[C@@H](C)CC)C(=O)N[C@@H](C)C(=O)N[C@@H](Cc1c[nH]c2ccccc12)C(=O)O` [AGKETIFQRLKKKIQEKGKRAKIAW], the minimum inhibitory concentration (MIC) was 1 µM (≈ 2.96 µg/mL) in the experiment on Escherichia coli BL21, 32 µM (≈ 94.6 µg/mL) in experiment [18] and 0.5 µM (≈ 1.48 µg/mL) in [19].
For the molecule `CC(C)[C@H](N)C(=O)N[C@@H](CC(=O)O)C(=O)N[C@@H](CC(=O)O)C(=O)N[C@@H](CC(=O)O)C(=O)N[C@@H](CC(=O)O)C(=O)N[C@@H](CCCCN)C(=O)O` [VDDDDK], the MIC was no less than 2770 µM against Candida krusei ATCC 6258; 2670 µM (≈ 1880 µg/mL) in experiment [20]; no less than 900 µM in experiment [21]; no less than 850 µM in experiment [22]; no less than 160 µM in [23]; no less than 1500 µM in experiment [24]. Besides, the results for the minimum inhibitory concentration (MIC) in [25] and in experiment [11] were no less than 3000 µM and 1080 µM (≈ 762 µg/mL), respectively.
With `CC[C@H](C)[C@H](NC(=O)[C@H](CCCN=C(N)N)NC(=O)[C@H](CCCN=C(N)N)NC(=O)[C@H](Cc1ccc(O)cc1)NC(=O)[C@H](CCCN=C(N)N)NC(=O)[C@H](CC(C)C)NC(=O)[C@H](CC(C)C)NC(=O)[C@H](CCCCN)NC(=O)[C@H](CC(C)C)NC(=O)CNC(=O)[C@H](Cc1c[nH]c2ccccc12)NC(=O)[C@H](CS)NC(=O)[C@H](C)NC(=O)[C@H](Cc1c[nH]c2ccccc12)NC(=O)[C@H](CCCN=C(N)N)NC(=O)[C@@H](N)Cc1c[nH]c2ccccc12)C(=O)N[C@@H](Cc1ccc(O)cc1)C(=O)O` [WRWACWGLKLLRYRRIY], the MIC with Escherichia coli W3110 is 8 µM (≈ 18.7 µg/mL); in [26], no less than 64 µM.
In turn, `CC[C@H](C)[C@H](NC(=O)[C@H](CC(=O)O)NC(=O)[C@H](Cc1ccccc1)NC(=O)[C@H](CC(C)C)NC(=O)CN)C(=O)N[C@H](C(=O)N[C@@H](CCCCN)C(=O)N[C@@H](CCCCN)C(=O)N[C@@H](CC(C)C)C(=O)N[C@@H](CC(C)C)C(=O)N[C@@H](CCCCN)C(=O)N[C@@H](CC(C)C)C(=O)N[C@@H](CC(C)C)C(=O)N[C@@H](CCCCN)C(N)=O)C(C)C` [GLFDIVKKLLKLLK] came in with an MIC in [27] of no less than 100 µM.
Consider `CC(C)C[C@H](NC(=O)[C@@H](N)CCCN=C(N)N)C(=O)N[C@@H](Cc1ccccc1)C(=O)N[C@@H](CCCN=C(N)N)C(=O)N[C@@H](CCCN=C(N)N)C(=O)N[C@H](C(=O)N[C@@H](CCCCN)C(=O)N[C@@H](CCCCN)C(=O)N[C@H](C(=O)N[C@@H](C)C(=O)NCC(N)=O)C(C)C)C(C)C` [RLFRRVKKVAG], for which the MIC was no less than 188 µM in the experiment with Acinetobacter baumannii; no less than 188 µM in experiment [28]; greater than 188 µM in [20]; greater than 188 µM in experiment [8]; no less than 188 µM against Escherichia coli O157:H7; no less than 188 µM in experiment [29]. Besides, the MIC was greater than 188 µM in experiment [10]; no less than 188 µM in [30]; no less than 188 µM in [31]; greater than 188 µM in [32]; greater than 188 µM in experiment [33]; no less than 188 µM in the experiment with Vibrio cholerae O1 Inaba.
